Reference: the supplement of paper PMC10307832

Key:
Experiment in all cases: relative viability (nuclei count vs DMSO), 5 days (fraction); higher = more cells survive
LCLC-103H = tested on: LCLC-103H
In short: (§1)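 Relative viability was taken as the ratio of nuclei in treated wells to nuclei in vehicle wells. Lung cancer cell lines in 1536-well plates received compounds by pin tool one day after seeding, either one drug alone or a fixed anchor-drug dose plus five library-drug doses (not always all listed) in √10 steps. Nuclei were counted on 4× images after 5 days of treatment, and values are medians of duplicate plates.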

LK-2 = tested on: LK-2
In short: as §1

NCI-H2126 = tested on: NCI-H2126
In short: as §1

NCI-H1666 = tested on: NCI-H1666
In short: as §1

HCC-827 = tested on: HCC-827
In short: as §1

NCI-H1355 = tested on: NCI-H1355
In short: as §1

NCI-H1944 = tested on: NCI-H1944
In short: as §1

LOU-NH91 = tested on: LOU-NH91
In short: as §1

NCI-H441 = tested on: NCI-H441
In short: as §1

BEN = tested on: BEN
In short: as §1

LXF-289 = tested on: LXF-289
In short: as §1

NCI-H1993 = tested on: NCI-H1993
In short: as §1

NCI-H661 = tested on: NCI-H661
In short: as §1

NCI-H1437 = tested on: NCI-H1437
In short: as §1

NCI-H727 = tested on: NCI-H727
In short: as §1

NCI-H647 = tested on: NCI-H647
In short: as §1

SK-MES-1 = tested on: SK-MES-1
In short: as §1

NCI-H2170 = tested on: NCI-H2170
In short: as §1

HOP-62 = tested on: HOP-62
In short: as §1

ChaGo-K-1 = tested on: ChaGo-K-1
In short: as §1

EKVX = tested on: EKVX
In short: as §1

RERF-LC-KJ = tested on: RERF-LC-KJ
In short: as §1

PC-14 = tested on: PC-14
In short: as §1

Work on `Cc1csc(=NC2CCCCC2)n1/N=C/c1ccc(O)c(O)c1O` [MIM1] + COc1cccc2cc(-c3nc([C@H]4CC[C@H](C(=O)O)CC4)n4ncnc(N)c34)[nH]c12 [OSI-027] (partner 0.5 µM) yielded a relative viability (LCLC-103H; first compound 0.2 µM) of 0.467, a relative viability (LCLC-103H; first compound 0.6325 µM) of 0.422 and a relative viability (LCLC-103H; first compound 2 µM) of 0.468. It also gave a relative viability (LCLC-103H; first compound 6.325 µM) of 0.435, a relative viability (LCLC-103H; first compound 20 µM) of 0.304 and a relative viability (LK-2; first compound 0.2 µM) of 0.247. It also gave a relative viability (LK-2; first compound 0.6325 µM) of 0.201, a relative viability (LK-2; first compound 2 µM) of 0.181 and a relative viability (LK-2; first compound 6.325 µM) of 0.169. For the same molecule, the relative viability (LK-2; first compound 20 µM) was 0.184, the relative viability (NCI-H2126; first compound 0.2 µM) was 0.758 and the relative viability (NCI-H2126; first compound 0.6325 µM) was 0.672. It also gave a relative viability (NCI-H2126; first compound 2 µM) of 0.732, a relative viability (NCI-H2126; first compound 6.325 µM) of 0.657 and a relative viability (NCI-H2126; first compound 20 µM) of 0.466. The relative viability (NCI-H1666; first compound 0.2 µM) was 0.957, the relative viability (NCI-H1666; first compound 0.6325 µM) was 0.9 and the relative viability (NCI-H1666; first compound 2 µM) was 0.804. For the same molecule, the relative viability (NCI-H1666; first compound 6.325 µM) was 0.639, the relative viability (NCI-H1666; first compound 20 µM) was 0.459 and the relative viability (HCC-827; first compound 0.2 µM) was 0.758. It also gave a relative viability (HCC-827; first compound 0.6325 µM) of 0.775, a relative viability (HCC-827; first compound 2 µM) of 0.695 and a relative viability (HCC-827; first compound 6.325 µM) of 0.529. The relative viability (HCC-827; first compound 20 µM) was 0.187, the relative viability (NCI-H1355; first compound 0.2 µM) was 0.409 and the relative viability (NCI-H1355; first compound 0.6325 µM) was 0.366. For the same molecule, the relative viability (NCI-H1355; first compound 2 µM) was 0.399, the relative viability (NCI-H1355; first compound 6.325 µM) was 0.372 and the relative viability (NCI-H1355; first compound 20 µM) was 0.253. For the same molecule, the relative viability (NCI-H1944; first compound 0.2 µM) was 0.441, the relative viability (NCI-H1944; first compound 0.6325 µM) was 0.44 and the relative viability (NCI-H1944; first compound 2 µM) was 0.334. The relative viability (NCI-H1944; first compound 6.325 µM) was 0.365, the relative viability (NCI-H1944; first compound 20 µM) was 0.285 and the relative viability (LOU-NH91; first compound 0.2 µM) was 0.721. For the same molecule, the relative viability (LOU-NH91; first compound 0.6325 µM) was 0.692, the relative viability (LOU-NH91; first compound 2 µM) was 0.64 and the relative viability (LOU-NH91; first compound 6.325 µM) was 0.694. The relative viability (LOU-NH91; first compound 20 µM) was 0.635, the relative viability (NCI-H441; first compound 0.2 µM) was 0.575 and the relative viability (NCI-H441; first compound 2 µM) was 0.625. The relative viability (NCI-H441; first compound 6.325 µM) was 0.472, the relative viability (NCI-H441; first compound 20 µM) was 0.191 and the relative viability (BEN; first compound 0.2 µM) was 0.309. For the same molecule, the relative viability (BEN; first compound 0.6325 µM) was 0.315, the relative viability (BEN; first compound 2 µM) was 0.28 and the relative viability (BEN; first compound 6.325 µM) was 0.318. The relative viability (BEN; first compound 20 µM) was 0.298, the relative viability (LXF-289; first compound 0.2 µM) was 0.782 and the relative viability (LXF-289; first compound 0.6325 µM) was 0.586. The relative viability (LXF-289; first compound 2 µM) was 0.806, the relative viability (LXF-289; first compound 6.325 µM) was 0.686 and the relative viability (LXF-289; first compound 20 µM) was 0.441. It also gave a relative viability (NCI-H1993; first compound 0.2 µM) of 0.515, a relative viability (NCI-H1993; first compound 0.6325 µM) of 0.57 and a relative viability (NCI-H1993; first compound 2 µM) of 0.557. It also gave a relative viability (NCI-H1993; first compound 6.325 µM) of 0.518, a relative viability (NCI-H1993; first compound 20 µM) of 0.474 and a relative viability (NCI-H661; first compound 0.2 µM) of 0.756. For the same molecule, the relative viability (NCI-H661; first compound 0.6325 µM) was 0.684, the relative viability (NCI-H661; first compound 2 µM) was 0.636 and the relative viability (NCI-H661; first compound 6.325 µM) was 0.534. It also gave a relative viability (NCI-H661; first compound 20 µM) of 0.31, a relative viability (NCI-H1437; first compound 0.2 µM) of 0.935 and a relative viability (NCI-H1437; first compound 0.6325 µM) of 0.854. The relative viability (NCI-H1437; first compound 2 µM) was 0.952, the relative viability (NCI-H1437; first compound 6.325 µM) was 0.599 and the relative viability (NCI-H1437; first compound 20 µM) was 0.186. For the same molecule, the relative viability (NCI-H727; first compound 0.2 µM) was 0.619, the relative viability (NCI-H727; first compound 0.6325 µM) was 0.712 and the relative viability (NCI-H727; first compound 2 µM) was 0.599. It also gave a relative viability (NCI-H727; first compound 6.325 µM) of 0.552, a relative viability (NCI-H727; first compound 20 µM) of 0.338 and a relative viability (NCI-H647; first compound 0.2 µM) of 0.708. For the same molecule, the relative viability (NCI-H647; first compound 0.6325 µM) was 0.658, the relative viability (NCI-H647; first compound 6.325 µM) was 0.557 and the relative viability (NCI-H647; first compound 20 µM) was 0.43. For the same molecule, the relative viability (SK-MES-1; first compound 0.2 µM) was 0.656, the relative viability (SK-MES-1; first compound 0.6325 µM) was 0.643 and the relative viability (SK-MES-1; first compound 2 µM) was 0.591. It also gave a relative viability (SK-MES-1; first compound 6.325 µM) of 0.439, a relative viability (SK-MES-1; first compound 20 µM) of 0.15 and a relative viability (NCI-H2170; first compound 0.2 µM) of 0.714. The relative viability (NCI-H2170; first compound 0.6325 µM) was 0.595, the relative viability (NCI-H2170; first compound 2 µM) was 0.637 and the relative viability (NCI-H2170; first compound 6.325 µM) was 0.461. The relative viability (NCI-H2170; first compound 20 µM) was 0.2, the relative viability (HOP-62; first compound 0.2 µM) was 0.848 and the relative viability (HOP-62; first compound 0.6325 µM) was 0.912. For the same molecule, the relative viability (HOP-62; first compound 2 µM) was 0.789, the relative viability (HOP-62; first compound 6.325 µM) was 0.666 and the relative viability (HOP-62; first compound 20 µM) was 0.19. The relative viability (ChaGo-K-1; first compound 0.2 µM) was 0.597, the relative viability (ChaGo-K-1; first compound 0.6325 µM) was 0.433 and the relative viability (ChaGo-K-1; first compound 2 µM) was 0.535. For the same molecule, the relative viability (ChaGo-K-1; first compound 6.325 µM) was 0.387, the relative viability (ChaGo-K-1; first compound 20 µM) was 0.159 and the relative viability (EKVX; first compound 0.2 µM) was 0.803. The relative viability (EKVX; first compound 0.6325 µM) was 0.767, the relative viability (EKVX; first compound 2 µM) was 0.719 and the relative viability (EKVX; first compound 6.325 µM) was 0.53. For the same molecule, the relative viability (EKVX; first compound 20 µM) was 0.583, the relative viability (RERF-LC-KJ; first compound 0.2 µM) was 0.555 and the relative viability (RERF-LC-KJ; first compound 0.6325 µM) was 0.629. The relative viability (RERF-LC-KJ; first compound 2 µM) was 0.403, the relative viability (RERF-LC-KJ; first compound 6.325 µM) was 0.313 and the relative viability (RERF-LC-KJ; first compound 20 µM) was 0.195. It also gave a relative viability (PC-14; first compound 0.2 µM) of 0.785, a relative viability (PC-14; first compound 0.6325 µM) of 0.846 and a relative viability (PC-14; first compound 2 µM) of 0.499. For the same molecule, the relative viability (PC-14; first compound 6.325 µM) was 0.656 and the relative viability (PC-14; first compound 20 µM) was 0.0965.
